“And” between values parts separate entries of the source, which are not always exact repeats. Identical values can stand only once.
What was measured:
Assay type in all cases: cell-based, human
TNF-α = TNF-α release (ELISA) after UVB irradiation, EpiDerm/keratinocyte model; conditions: for TNF-α (pg/ml), Sample2 / TNF-α (pg/ml), sample1: TNF-α released into media after UVB ~30 mJ/cm^2; for TNF-α (pg/ml), Sample2: UVB + Vehicle 147; for TNF-α (pg/ml), sample1: UVB + Vehicle 257; for TNF-α Avg.: average of sample 1 and 2, UVB + Vehicle 202
Method: (§1) Stock solutions of test materials are listed below: • 1. UTL-5d stock: 1.7 mg/ml UTL-5d in a vehicle of 50:50 EtOH:PEG 600 v/v • 2. UTR-1 stock: 3.5 mg/ml UTR-1 in a vehicle of 50:50 EtOH:PEG 600 v/v • 3. Vehicle stock: 50:50 EtOH:PEG 600
(§2) Human epidermal keratinocytes were seeded into 6-well plates and grown at 37±2° C. and 5±1% CO2 using serum free Epilife media supplemented as recommended by the manufacturer. Upon reaching confluency, the media were removed and the cells were treated overnight with Epilife media containing 1% v/v each of the stock solutions above (Vehicle stock and UTR-1 stock). Final concentration was 35 μg/ml for UTR-1. Two wells in the 6-well plate were prepared for each treatment. After applying the test material the cells were incubated for 24 hours at 37±2° C. and 5±1% CO2.
At the end of the incubation period the culture media was removed via aspiration and replaced with phosphate buffered saline. The cells were then irradiated with ˜30 mJ/cm^2 of UVB radiation. Fresh culture media was then applied to the cells and the cells were incubated overnight at 37±2° C. and 5±1% CO2. After the incubation the cell culture media was collected to measure TNF-α release by a commercial ELISA Assay kit.

PTGER3 = test: Micro array gene expression analysis, PTGER3; conditions: keratinocytes, UVB irradiated; treated/untreated (Cy5/Cy3)
Method: as §1, §2
(§3) At the end of the incubation period the culture media was removed via aspiration and replaced with phosphate buffered saline. […]
(§4) The cells were washed once with PBS and then a trypsin/EDTA solution was added to release the cells, followed by the addition of trypsin neutralizing solution. […] In general, (1) the fluorescence intensity of the gene marker should be greater than the background intensity, and (2) the ratio of Cy5/Cy3 (treated/untreated) fluorescence intensity needs to be greater than 1.3 or less than 0.66 to indicate a change of ±30% in gene expression.

PTGER2 = test: Micro array gene expression analysis, PTGER2; conditions: keratinocytes, UVB irradiated; treated/untreated (Cy5/Cy3)
Method: as §1, §2, §3, §4

CDCP1 = test: Micro array gene expression analysis, CDCP1; conditions: keratinocytes, UVB irradiated; treated/untreated (Cy5/Cy3)
Method: as §1, §2, §3, §4

PTGFR = test: Micro array gene expression analysis, PTGFR; conditions: keratinocytes, UVB irradiated; treated/untreated (Cy5/Cy3)
Method: as §1, §2, §3, §4

MAP3K2 = test: Micro array gene expression analysis, MAP3K2; conditions: keratinocytes, UVB irradiated; treated/untreated (Cy5/Cy3)
Method: as §1, §2, §3, §4

JAK3 = test: Micro array gene expression analysis, JAK3; conditions: keratinocytes, UVB irradiated; treated/untreated (Cy5/Cy3)
Method: as §1, §2, §3, §4

APOBEC1 = test: Micro array gene expression analysis, APOBEC1; conditions: keratinocytes, UVB irradiated; treated/untreated (Cy5/Cy3)
Method: as §1, §2, §3, §4

TNFRSF6B = test: Micro array gene expression analysis, TNFRSF6B; conditions: keratinocytes, UVB irradiated; treated/untreated (Cy5/Cy3)
Method: as §1, §2, §3, §4

PTGER1 = test: Micro array gene expression analysis, PTGER1; conditions: keratinocytes, UVB irradiated; treated/untreated (Cy5/Cy3)
Method: as §1, §2, §3, §4

DEFA6 = test: Micro array gene expression analysis, DEFA6; conditions: keratinocytes, UVB irradiated; treated/untreated (Cy5/Cy3)
Method: as §1, §2, §3, §4

EFA6R = test: Micro array gene expression analysis, EFA6R; conditions: keratinocytes, UVB irradiated; treated/untreated (Cy5/Cy3)
Method: as §1, §2, §3, §4

EPHB4 = test: Micro array gene expression analysis, EPHB4; conditions: keratinocytes, UVB irradiated; treated/untreated (Cy5/Cy3)
Method: as §1, §2, §3, §4

TGFB2 = test: Micro array gene expression analysis, TGFB2; conditions: keratinocytes, UVB irradiated; treated/untreated (Cy5/Cy3)
Method: as §1, §2, §3, §4

PTGIR = test: Micro array gene expression analysis, PTGIR; conditions: keratinocytes, UVB irradiated; treated/untreated (Cy5/Cy3)
Method: as §1, §2, §3, §4

TNFSF13 = test: Micro array gene expression analysis, TNFSF13; conditions: keratinocytes, UVB irradiated; treated/untreated (Cy5/Cy3)
Method: as §1, §2, §3, §4

ITGB6 = test: Micro array gene expression analysis, ITGB6; conditions: keratinocytes, UVB irradiated; treated/untreated (Cy5/Cy3)
Method: as §1, §2, §3, §4

TUCAN = test: Micro array gene expression analysis, TUCAN; conditions: keratinocytes, UVB irradiated; treated/untreated (Cy5/Cy3)
Method: as §1, §2, §3, §4

Structure (SMILES) | TNF-α (pg/ml), Sample2 (TNF-α) | TNF-α (pg/ml), sample1 (TNF-α) | TNF-α Avg. (TNF-α) | PTGER3 Gene expression (%) (PTGER3) | PTGER2 Gene expression (%) (PTGER2) | CDCP1 Gene expression (%) (CDCP1) | PTGFR Gene expression (%) (PTGFR) | MAP3K2 Gene expression (%) (MAP3K2) | JAK3 Gene expression (%) (JAK3) | APOBEC1 Gene expression (%) (APOBEC1) | TNFRSF6B Gene expression (%) (TNFRSF6B) | PTGER1 Gene expression (%) (PTGER1) | DEFA6 Gene expression (%) (DEFA6) | EFA6R Gene expression (%) (EFA6R) | EPHB4 Gene expression (%) (EPHB4) | TGFB2 Gene expression (%) (TGFB2) | PTGIR Gene expression (%) (PTGIR) | TNFSF13 Gene expression (%) (TNFSF13) | ITGB6 Gene expression (%) (ITGB6) | TUCAN Gene expression (%) (TUCAN)
Cc1cc(C(=O)O)no1 [UTR-1] | 119 pg/mL | 120 pg/mL | 120 pg/mL | 40.8% | 58.0% | 65.6% | 40.0% | 59.2% | 38.6% and 41.7% | 33.3% | 68.0% | 28.6% | 38.0% | 37.5% | 43.3% | 57.9% | 39.4% | 42.5% | 30.0% | 33.3%
Cc1cc(C(=O)Nc2ccc(Cl)cc2)no1 [UTL-5d] | 67 pg/mL | 61 pg/mL | 64 pg/mL | 42.7% | 39.9% | 44.1% | 24.5% | 59.9% | 34.7% and 29.3% | 29.2% | 52.1% | 33.8% | 44.3% | 29.2% | 35.8% | 38.2% | 27.0% | 47.0% | 24.3% | 26.0%
